The values that follow come from ChEMBL document CHEMBL5584231, “Rational design of a new short anticancer peptide with good potential for cancer treatment” (Eur J Med Chem, 2024).

For one series, the system named is HeLa. The series is described as follows: Cytotoxicity against human HeLa cells assessed as inhibition of cell growth incubated for 1 hr by MTT assay. The class given is functional, cell-based. Background: Formazan colour is commonly taken as a measure of viable cells.
Series [1] in a line: Therapeutic index, ratio of HC10 for mouse RBC to IC50 for cytotoxicity against human A549 cells. It is filed as toxicity, cell-based. The conditions noted are these: mouse RBC and A549 cells, read-out: TI.
Series [2] can be described thus: Cytotoxicity against HK-2 cells assessed as inhibition of cell growth incubated for 1 hr by MTT assay. The conditions noted are these: human. It is filed as toxicity, cell-based.
Another series concerns MCF7. The series is described as follows: Cytotoxicity against human MCF7 cells assessed as inhibition of cell growth incubated for 1 hr by MTT assay. As to conditions: MCF7, 1 h. It is filed as functional, cell-based.
Series [3] is described as follows: Cytotoxicity against RG cells (unknown origin) assessed as inhibition of cell growth incubated for 1 hr by MTT assay. The class given is functional, cell-based.
Series [4] in a line: Therapeutic index, ratio of HC10 for mouse RBC to IC50 for cytotoxicity against RG cells (unknown origin). It is filed as toxicity, cell-based. The conditions noted are these: mouse RBC and RG cells, read-out: TI.
Series [5] in a line: Therapeutic index, ratio of HC10 for mouse RBC to IC50 for cytotoxicity against human MCF7 cells. It is filed as toxicity, cell-based. The conditions noted are these: mouse RBC and MCF7 cells, read-out: TI.
Another series relates to A549. Kind of series: Cytotoxicity against human A549 cells assessed as inhibition of cell growth incubated for 1 hr by MTT assay. The class given is functional, cell-based. As to conditions: A549, 1 h.
The nature of series [6]: Therapeutic index, ratio of HC10 for mouse RBC to IC50 for cytotoxicity against human HeLa cells. The class given is toxicity, cell-based. The conditions noted are these: mouse RBC and HeLa cells, read-out: TI.

Residues, ends and D or L forms follow the SMILES beside them.

What is called IC50 is the point on the concentration scale where inhibition reaches its midpoint. `CC(C)C[C@H](NC(=O)[C@H](CCCCN)NC(=O)[C@H](CC(C)C)NC(=O)[C@H](CC(C)C)NC(=O)[C@H](CCCCN)NC(=O)[C@H](CCCCN)NC(=O)[C@H](CC(C)C)NC(=O)[C@H](CC(C)C)NC(=O)[C@H](CCCCN)NC(=O)[C@H](CCCCN)NC(=O)[C@H](CC(C)C)NC(=O)[C@H](CC(C)C)NC(=O)[C@H](CCCCN)NC(=O)[C@@H](N)CCCCN)C(N)=O` (H-KKLLKKLLKKLLKL-NH2): the IC50 in the series with HeLa came out at 7.85 µM; in the series with MCF7, 12.5 µM; in [3], 12.1 µM; with A549 it was 8.71 µM. The selectivity ratio in series [1] is 9.31; in series [4], 6.72; in series [5], 6.5; in [6], 10.3. Besides, the IC50 at 1 h in series [2] came out at 8.91 µM.
For `CC(C)C[C@H](NC(=O)[C@H](CC(C)C)NC(=O)[C@H](CCCCN)NC(=O)[C@H](CCCCN)NC(=O)[C@H](CC(C)C)NC(=O)[C@H](CC(C)C)NC(=O)[C@H](CCCCN)NC(=O)[C@H](CCCCN)NC(=O)[C@H](CC(C)C)NC(=O)[C@H](CC(C)C)NC(=O)[C@@H](N)CCCCN)C(=O)N[C@@H](CCCCN)C(N)=O` (H-KLLKKLLKKLLK-NH2), the IC50 in the series with HeLa was determined as 22.2 µM; with MCF7 it was 89.7 µM; in [3] it was 47.2 µM; in the series on A549 it was 131 µM. For the same molecule, the selectivity ratio in series [1] turned out to be 3.19; in series [4], 8.86; in series [5], 4.66; in series [6] it was 18.9. In addition, the IC50 at 1 h in [2] stood at 82.6 µM.
For `CC(C)C[C@H](NC(=O)[C@H](CC(C)C)NC(=O)[C@H](CCCCN)NC(=O)[C@H](CCCCN)NC(=O)[C@H](CC(C)C)NC(=O)[C@H](CC(C)C)NC(=O)[C@H](CCCCN)NC(=O)[C@H](CCCCN)NC(=O)[C@H](CC(C)C)NC(=O)[C@H](CC(C)C)NC(=O)[C@H](CCCCN)NC(=O)[C@H](CCCCN)NC(=O)[C@H](CC(C)C)NC(=O)[C@H](CC(C)C)NC(=O)[C@@H](N)CCCCN)C(=O)N[C@@H](CCCCN)C(N)=O` (H-KLLKKLLKKLLKKLLK-NH2), the IC50 with HeLa came to 3.94 µM; with MCF7, 7.46 µM; in series [3] it was 6.79 µM; with A549, 3.93 µM. Further, the selectivity ratio turned out to be 2.31 in series [1], 1.34 in series [4], 1.22 in [5] and 2.31 in series [6]. Also, the IC50 at 1 h in series [2] was determined as 7.36 µM.
For `CC(C)C[C@H](NC(=O)[C@H](CCCCN)NC(=O)[C@H](CC(C)C)NC(=O)[C@H](CC(C)C)NC(=O)[C@H](CCCCN)NC(=O)[C@H](CCCCN)NC(=O)[C@H](CC(C)C)NC(=O)[C@H](CC(C)C)NC(=O)[C@H](CCCCN)NC(=O)[C@H](CCCCN)NC(=O)[C@H](CC(C)C)NC(=O)[C@H](CC(C)C)NC(=O)[C@H](CCCCN)NC(=O)[C@H](CCCCN)NC(=O)[C@H](CC(C)C)NC(=O)[C@H](CC(C)C)NC(=O)[C@@H](N)CCCCN)C(N)=O` (H-KLLKKLLKKLLKKLLKL-NH2), the IC50 with HeLa turned out to be 2.68 µM; in the series with MCF7 it was 6.19 µM; in series [3] it was 7.88 µM; in the series with A549, 4.06 µM. The selectivity ratio in [1] was 0.787; in series [4], 0.406; in [5], 0.517; in [6] it was 1.2. The IC50 at 1 h in series [2] amounted to 5.35 µM.
Turning to `CC(C)C[C@H](NC(=O)[C@H](CCCCN)NC(=O)[C@H](CC(C)C)NC(=O)[C@H](CC(C)C)NC(=O)[C@H](CCCCN)NC(=O)[C@H](CCCCN)NC(=O)[C@H](CC(C)C)NC(=O)[C@H](CC(C)C)NC(=O)[C@H](CCCCN)NC(=O)[C@H](CCCCN)NC(=O)[C@H](CC(C)C)NC(=O)[C@H](CC(C)C)NC(=O)[C@@H](N)CCCCN)C(N)=O` (H-KLLKKLLKKLLKL-NH2), the IC50 with HeLa stood at 8.14 µM; with MCF7 it was 10.5 µM; in [3] it was 11.1 µM; with A549, 9.08 µM. The selectivity ratio in series [1] worked out at 6.09; in series [4], 4.98; in series [5], 5.27; in series [6], 6.79. In addition, the IC50 at 1 h in series [2] was found to be 9.65 µM.
With `CC(C)C[C@H](NC(=O)[C@H](CC(C)C)NC(=O)[C@H](CCCCN)NC(=O)[C@H](CCCCN)NC(=O)[C@H](CC(C)C)NC(=O)[C@H](CC(C)C)NC(=O)[C@H](CCCCN)NC(=O)[C@H](CCCCN)NC(=O)[C@H](CC(C)C)NC(=O)[C@H](CC(C)C)NC(=O)[C@H](CCCCN)NC(=O)[C@H](CC(C)C)NC(=O)[C@H](CC(C)C)NC(=O)[C@@H](N)CCCCN)C(N)=O` (H-KLLKLLKKLLKKLL-NH2), the IC50 turned out to be 11.9 µM with HeLa, 58.4 µM in the series on MCF7, 34.3 µM in series [3] and 15.4 µM in the series on A549. Besides, the selectivity ratio in series [1] is 0.486; in series [4], 0.219; in series [5], 0.129; in series [6], 0.629. Further, the IC50 at 1 h in series [2] is 28.1 µM.
In the case of `CC(C)C[C@H](NC(=O)[C@H](CC(C)C)NC(=O)[C@H](CCCCN)NC(=O)[C@H](CCCCN)NC(=O)[C@H](CC(C)C)NC(=O)[C@H](CC(C)C)NC(=O)[C@H](CCCCN)NC(=O)[C@H](CCCCN)NC(=O)[C@H](CC(C)C)NC(=O)[C@H](CC(C)C)NC(=O)[C@H](CCCCN)NC(=O)[C@H](CCCCN)NC(=O)[C@H](CCC(=O)O)NC(=O)[C@@H](N)CC(C)C)C(N)=O` (H-LEKKLLKKLLKKLL-NH2), the IC50 in the series on HeLa was 25.8 µM; with MCF7, 51.2 µM; in series [3], 46.4 µM; in the series on A549 it was 49.4 µM. In addition, the selectivity ratio is 2.42 in series [1], 2.58 in series [4], 2.33 in series [5] and 4.62 in series [6]. Besides, the 50% inhibitory concentration (IC50) at 1 h in series [2] came to 59.2 µM.
For the molecule `CC(C)C[C@H](NC(=O)[C@H](CC(C)C)NC(=O)[C@H](CCCCN)NC(=O)[C@H](CCCCN)NC(=O)[C@H](CC(C)C)NC(=O)[C@H](CC(C)C)NC(=O)[C@H](CCCCN)NC(=O)[C@H](CCCCN)NC(=O)[C@H](CC(C)C)NC(=O)[C@H](CC(C)C)NC(=O)[C@H](CCCCN)NC(=O)[C@H](CCC(=O)O)NC(=O)[C@H](CC(C)C)NC(=O)[C@@H](N)CC(C)C)C(N)=O` (H-LLEKLLKKLLKKLL-NH2), the IC50 came to 7.05 µM in the series with HeLa, 10.5 µM in the series with MCF7, 11.1 µM in series [3] and 8.11 µM in the series on A549. Moreover, the selectivity ratio in series [1] amounted to 0.767; in series [4], 0.563; in series [5], 0.595; in [6] it was 0.883. Besides, in series [2], the IC50 at 1 h is 11 µM.
In the case of `CC(C)C[C@H](NC(=O)[C@H](CC(C)C)NC(=O)[C@H](CCCCN)NC(=O)[C@H](CCCCN)NC(=O)[C@H](CC(C)C)NC(=O)[C@H](CC(C)C)NC(=O)[C@H](CCCCN)NC(=O)[C@H](CCCCN)NC(=O)[C@H](CC(C)C)NC(=O)[C@H](CC(C)C)NC(=O)[C@H](CCC(=O)O)NC(=O)[C@H](CCCCN)NC(=O)[C@H](CC(C)C)NC(=O)[C@@H](N)CC(C)C)C(N)=O` (H-LLKELLKKLLKKLL-NH2), the IC50 with HeLa is 12.9 µM; in the series with MCF7, 18.5 µM; in series [3], 18.2 µM; with A549 it was 23.8 µM. The selectivity ratio in series [1] is 0.966; in [4], 1.26; in [5] it was 1.24; in series [6], 1.78. The IC50 at 1 h in series [2] was determined as 21.4 µM.
